In patent US20040023990A1, “Use of pyrazolo[4,3-d]pyrimidines” (priority 2000, published 2004):

melting point: 178 °C
SMILES: CCCc1nn(C)c2c(NCc3ccc(OC)c(Cl)c3)nc(CCC(=O)O)nc12 [Example 2, 3-[7-(3-chloro4-methoxybenzylamino)-1-methyl-3-propyl-1H-pyrazolo-[4,3-d]pyrimidin-5-yl]propionic acid]
